We go through ten compounds from patent USRE35224E (The Board of Trustees of the Leland Stanford Junior …, priority 1993, dated 1996).

For orientation: EC50 means the concentration giving half of the maximal effect.

Assay [1] has as its target T1, natural suppressor cells (Mus musculus, UniProt P97292).
T1 construct: cAMP accumulation
Put plainly: Effects of histamine derivatives on cAMP accumulation in natural suppressor (NS) cells. The conditions noted are these: for Maximal efficacy on cAMP concentrations (in words): compared with histamine; for Activity / potency on NS cells (in words): cAMP accumulation, H2 activity; for Relative potency: histamine = 1.0. It counts as cell-based, mouse (BALB/c). The source says:
NS cells were obtained and cultured as follows: four-to six-month old BALB/c mice were anesthetized with pentobarbital and all major lymphoid organs, including all major lymph nodes, the spleen, and the thymus, were irradiated as described by Slavin et al., Science (1976) 193:1252. The skull, lungs, and hind legs were shielded with lead. The mice were given 200 rad per day, 5 times per week, to a total dose of 3400 rad. Irradiation was delivered from a single 250 kV (15A) source (Philips Medical Systems, Inc., Shelton, CT). The mice were killed between 5 and 15 days after completion of the TLI. Spleens were removed aseptically and single cell suspensions were prepared by gently pressing the spleen fragments through a nylon fiber mesh (Tetko, Inc., Elmsford, NY). These spleen cells were fed daily with tissue culture medium containing RPMI 1640, 10% FCS, 2 mM glutamine, 10% CAS and 5×10^-5 M 2-mercaptoethanol and were later cloned by limiting dilutior, The clones were maintained in RPMI 1640 medium with 10% PCS and 10% CAS.
NS cells were centrifuged and resuspended at b 1×10^6 /ml in PBS and incubated at 37° C. for 10 min with 10 mM IBMX at a final concentration at 20 μM. Alternatively the cells were resuspended in 5 mM HEPES and 1 mM MgSO4 and after five minutes were disrupted in a Dounce homogenizer. Broken cells were centrifuged at 20,000 g […] for thirty minutes and supernatant was discarded. The pellet was resuspended in Tris (pH 7.5), 5 mM HEPES and 1 mM MgSO4 and incubated with IBMX.
Cold TCA (100%) was added to a final concentration of 8% and the tubes were stored in ice. Samples were extracted 3 times with 3 volumes of ether. The ether was evaporated at 40° C. in a water bath for approximately 45 min. Acetylation of both experimental samples and cAMP standards were performed by addition of 10 μl of a mixture of triethylamine and acetic anhydride (2:1). […] The radio-immunoassay was performed as reported previously by Khan et al., J. Clin. Invest. (1985) 75:1578.
For orientation: cAMP levels reflect the balance of adenylyl cyclase and phosphodiesterase activity.

Assay [2] concerns the target T1, natural suppressor cells. Briefly: Blocking histamine effects in natural suppressor cells (H2 antagonism). Particulars: for Antagonism by cimetidine (H2 antagonist) of cAMP accumulation: cimetidine 10^-5 M, compounds 6-8 at 10^-4 M, 9 at 10^-7 M. Type of assay: cell-based, mouse (BALB/c). How it is done:
This assay was carried out in the same fashion as already described for the derivatives except that ED-90 concentration of the test compound was chosen. Cimetidine was added at the same time in concentrations ranging from 10^-4 to 10^-8 M. Alternatively, 10^-6 M cimetidine was added to 10^-3 -10^-8 M concentration of agonists.

Assay [3] relates to natural suppressor cells. Put plainly: Mixed leukocyte reaction (MLR) suppressor assay. Type of assay: cell-based, mouse (BALB/c, C57 BL/6). Particulars: with compound 10; cimetidine 10^-5 M or mepyramine 10^-6 M, four hours at 37° C. How it is done: Responder (BALB/c) and stimulator (C57 BL/6) spleen cells (5×10^5each) were incubated with graded numbers of NS cells in 0.3 ml/well in 96-well flat bottomed microculture plates (Costar, Data Packaging, Cambridge, MA). The culture medium was supplemented with 100 U/ml penicillin, 100 ug/ml of streptomycin (both GIBCO, Grand Island, NY), and 10=pooled human serum (VSP human serum, Biocell Laboratories, Carson CA). Co-cultured cells and stimulator cells were given 3300 rad before incubation. Cultures were maintained at 37° C. in 5% CO2 for 5 or 6 days. Eighteen hr before termination, 1 μCi of ^3 H!-thymidine (specific activity […]) (New England Nuclear, Boston, MA) was added to each culture. Cells were harvested as described above. The data were expressed as the arithmetic mean of triplicate cultures. Suppression was calculated as follows: percent suppression=1-(CPM with co-cultured cells)/(CPM without co-cultured cells)×100. […] To block the effects of agonists, […] cimetidine was used as an H2 antagonist and 10^-6 M mepyramine was used as an H1 antagonist.
CO-cultured and stimulator cells were given 3300 rad in vitro just prior to incubation. […] See, Khan et al., J. Immunol. (1985) 134:4100. […] To determine the role of H1 and H2 receptors in the modification of NS cell function, the incubation with compound 10 was carried out in the presence of either cimetidine (10^-5 M) or mepyramine (10^-6 M) for four hours at 37° C. The cells were then washed extensively and later added to co-cultures with responder and stimulator cells. […] Similar experiments were carried out with each of the indicated agonists (Table 5).

The target in assay [4] is T2, guinea pig myocardial adenylate cyclase (Cavia porcellus, UniProt P47747).
T2 construct: histamine-stimulated adenylate cyclase with GPP(NH)P
T2 sequence (P47747 whole entry): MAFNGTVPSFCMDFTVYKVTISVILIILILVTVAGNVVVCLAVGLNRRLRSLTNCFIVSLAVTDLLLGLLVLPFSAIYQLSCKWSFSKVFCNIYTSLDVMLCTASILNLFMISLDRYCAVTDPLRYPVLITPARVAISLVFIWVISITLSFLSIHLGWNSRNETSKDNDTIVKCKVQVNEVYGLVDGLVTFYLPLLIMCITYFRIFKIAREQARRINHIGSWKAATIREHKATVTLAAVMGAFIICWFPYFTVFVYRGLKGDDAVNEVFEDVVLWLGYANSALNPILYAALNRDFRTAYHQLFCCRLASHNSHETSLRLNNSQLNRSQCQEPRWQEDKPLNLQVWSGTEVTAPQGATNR
Briefly: Guinea pig myocardial adenylate cyclase assay. The conditions noted are these: adenylate cyclase. It counts as biochemical. How it is done: Male, partly albino, guinea pigs (600 g average weight) were killed by a blow to the head. The hearts were excised and immediately immersed in ice cold oxygenated Tyrode's solution. Both ventricles were dissected free and placed in 250 mM sucrose, 5 mM Tris, 1 mM EDTA, pH 7.45. The tissue was minced with a screen, and was then homogenized with 3 consecutive 5 sec bursts of a Polytron (Brinkman Instruments, Inc., Westbury, NY) at a setting of 11. The homogenate was then centrifuged at 1085×g for 20 min. The pellet was resuspended and recentrifuged twice. The final suspension was filtered through four layers of gauze. Adenylate cyclase was assayed by the method of Salomon et al., Anal. Biochem. (1974) 58:541 as modified by Bristow et al., Mol Pharmacol. (1982) 21:671. Enzyme protein (75-250 μg) was added to a reaction mixture that consisted of 0.1 mM Mg ATP, 0.5 mM MgCl2, 10 mM phosphocreatine, 14.5 μg of creatine kinase (1381 U/mg), 100 mM
The final reaction volume before addition of α-^32 P!ATP was 225 μl. Reaction tubes were stored in cryogenic racks (Kryorack, Isolab, Inc. Akron, OH) at 0° C.
The reaction mixture was pre-warmed in a shaking water bath at 30° C. for 5 min after which 25 μl ([…]) of α-^32 P!ATP (250-500 Ci/mM) was added to label the ATP pool. The assay time was 20 min, the time needed for measurable stimulation of adenylate cyclase. The ^32 P reaction was stopped by the addition of 750 μl of 1% sodium dodecysulfate. ^32 P-labelled cyclic AMP was then isolated by the dual Dowex-alumina column method of Salomon et al., supra. α-^32 P!ATP (New England Nuclear Corporation, Boston, MA) that gave reagent blanks of 50 cpm was purified on Dowex columns as described by Salomon et al., supra.

“Also recorded” adds a separate entry of the source. Counter-ions that a name gives are not always drawn.

T1 sequence (P97292 whole entry): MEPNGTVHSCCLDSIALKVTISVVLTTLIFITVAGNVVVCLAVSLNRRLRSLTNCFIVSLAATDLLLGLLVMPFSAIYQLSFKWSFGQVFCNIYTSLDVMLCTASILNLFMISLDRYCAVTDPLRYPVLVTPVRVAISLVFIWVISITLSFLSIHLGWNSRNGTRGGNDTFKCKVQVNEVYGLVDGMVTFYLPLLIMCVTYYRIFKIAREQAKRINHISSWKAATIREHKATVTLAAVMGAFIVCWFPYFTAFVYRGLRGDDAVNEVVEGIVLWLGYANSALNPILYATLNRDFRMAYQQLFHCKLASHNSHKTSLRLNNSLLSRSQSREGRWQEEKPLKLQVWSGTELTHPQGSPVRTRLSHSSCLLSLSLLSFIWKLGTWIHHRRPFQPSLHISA

Consider `CN(C)CCCSC(=N)N` [Dimaprit, reference compound], for which, in assay [1] (NS cells), the response was half-maximal at 60 µM (EC50) and the “Maximal efficacy on cAMP concentrations (in words)” value is given as “did not produce the same maximal effects as histamine on cAMP concentrations”. Moreover, in assay [1], the “Activity / potency on NS cells (in words)” value (“Activity / potency” for short) is listed as “had H2 effects on the NS cells”. The “Shift of dose response curve by cimetidine” value in assay [2] (10^-3 M to 10^-8 M agonist, 10^-6 M cimetidine) was “parallel shifts to the right”.

`COc1ccc(CN(CCN(C)C)c2ccccn2)cc1` [Mepyramine, reference compound]: the “Effect of antagonist on derivative-enhanced suppression in MLR” value in assay [3] was “reversed the increase in suppressive activity of the derivative-stimulated NS cells”.

In the case of `CCCCCCNCCc1c[nH]cn1` [Compound 1, 1-2'-(4"-Imidazo)ethylamino!hexane, Dihydrochloride], the “Potency relative to histamine (in words)” value in assay [1] (NS cells, Dihydrochloride) is “about equipotent to histamine; also recorded: equipotent to histamine on the lymphocyte accumulation of cyclic AMP”. In addition, in assay [1] (NS cells), the Relative potency was 0.5 × 10^1. For the same compound, the “Activity on guinea pig myocardium (in words)” value in assay [4] (Dihydrochloride) was “completely inactive; also recorded: little or no effect on the myocardium”. In addition, the “Antagonism by cimetidine (H2 antagonist) of cAMP accumulation” value (“Antagonism by cimetidine (H2 antagonist)” for short) in assay [2] is given as “not inhibited by the H2 antagonist”.

For `Cc1ccc(NC(=O)CCCCC(C)NCCc2c[nH]cn2)cc1` (stereo not shown) [Compound 7, 6-2'-(4"-Imidazolyl)ethylamino!heptanoic Acid p-Toluide], in assay [1] (NS cells), the “Potency relative to histamine (in words)” value is on record as “three times as potent as histamine” and the Relative potency is 0.3 × 10^1. Moreover, in assay [1], the “Activity / potency” value is “widely divergent activity”. In addition, in assay [4], the “Activity on guinea pig myocardium (in words)” value is “same rank order of potency found in the NS cells”.

Consider `CC(CCCCC(=O)Nc1ccc(C(F)(F)F)cc1)NCCc1c[nH]cn1` (stereo not shown) [Compound 9], for which, in assay [1] (NS cells), the “Potency or activity relative to histamine” value is given as 40,000 fold, the “Potency relative to histamine” value is reported as 4 orders of magnitude, the “Maximal efficacy on cAMP concentrations (in words)” value is “lost a significant amount of maximal efficacy” and the Relative potency is recorded as 4.3 × 10^4. The “Activity / potency” value in assay [1] is on record as “very potent in NS cell cAMP assays”. The “Activity / potency” value in assay [1] (listed as compound 9) is given as “most potent of this series on H2 receptors; also recorded: retained H2 activity”. Further, in assay [4], the “Activity on guinea pig myocardium (in words)” value was “strikingly impotent in guinea pig myocardium”. Also, in assay [4] (listed as compound 9), the “Activity on guinea pig myocardium (in words)” value is listed as “did not stimulate adenylate cyclase in guinea pig myocardium”. For the same compound, in assay [2], the “Antagonism by cimetidine (H2 antagonist)” value was “could not be completely inhibited by the H2 antagonist”.

Take `Cc1ccc(NC(=O)CCCCCC(C)NCCc2c[nH]cn2)cc1` (stereo not shown) [Compound 8]: the Relative potency in assay [1] (NS cells) was 0.2 × 10^1. In addition, the “Activity / potency” value in assay [1] is listed as “widely divergent activity”. In addition, the “Activity on guinea pig myocardium (in words)” value is listed as “very weak effects” in assay [4] and “same rank order of potency found in the NS cells” in assay [4] (listed as compound 8).

On to `Cc1ccc(NC(=O)CCCC(=O)NCCc2c[nH]cn2)cc1` [Compound 4, 5-2'-(4"-Imidazo)ethylamido!glutaryl p-Toluidine], for which, in assay [1] (NS cells), the “Potency relative to histamine (in words)” value is recorded as “four times more potent than histamine; also recorded: equipotent to histamine on the lymphocyte accumulation of cyclic AMP” and the Relative potency was 0.4 × 10^1. In addition, in assay [1], the “Activity / potency” value was “very active on NS cells”. In addition, in assay [4], the “Activity on guinea pig myocardium (in words)” value was “inactive on the guinea pig myocardium; also recorded: little or no effect on the myocardium”. Moreover, the “Antagonism by cimetidine (H2 antagonist)” value in assay [2] is on record as “not inhibited by the H2 antagonist”.

Take `Cc1ccc(NC(=O)CCCC(C)NCCc2c[nH]cn2)cc1` (stereo not shown) [Compound 6]: in assay [1] (NS cells), the “Potency or activity relative to histamine” value came out at 3000 fold, the “Potency relative to histamine (in words)” value was “three orders of magnitude more potent than histamine” and the Relative potency is 3.8 × 10^3. The “Activity / potency” value in assay [1] is “very potent in NS cell cAMP assays”. Besides, the “Activity / potency” value in assay [1] (listed as compound 6) is “widely divergent activity; also recorded: retained H2 activity”. Moreover, the “Activity on guinea pig myocardium (in words)” value in assay [4] is on record as “strikingly impotent in guinea pig myocardium; also recorded: less potent than histamine on the myocardium; also recorded: very weak effects; also recorded: significantly different in their activity”. Moreover, the “Activity on guinea pig myocardium (in words)” value in assay [4] (listed as compound 6) is recorded as “same rank order of potency found in the NS cells”. Further, in assay [2], the “Antagonism by cimetidine (H2 antagonist)” value is given as “could not be completely inhibited by the H2 antagonist”.

With `CNC(=O)CNC(=O)[C@H](Cc1ccc(NC(=O)CCCCC(C)NCCc2c[nH]cn2)cc1)NC(=O)OC(C)(C)C` (stereo partly shown) [Compound 12], in assay [1] (NS cells), the Relative potency result is “Inactive”. The “Activity / potency” value in assay [1] was “impotent as H2 receptor agonists on NS cells”; in assay [1] (listed as compound 12), “Neither an aliphatic amide derivative of histamine (compound 3) nor the dipeptide conjugate of histamine (compound 12) altered intracellular cAMP; also recorded: inactive on NS cells”. Also, in assay [4], the “Activity on guinea pig myocardium (in words)” value is on record as “stimulated guinea pig myocardium”. In assay [2] (NS cells), the “Blockade of histamine mediated accumulation of cAMP” value is “failed to block histamine mediated accumulation of cAMP”.

On to `Cc1ccc(NC(=O)CCCCNCCc2c[nH]cn2)cc1` [Compound 5, 5-2'-(4"-Imidazo)ethylamino!pentanoic Acid p-Toluide, Dihydrochloride], for which the Relative potency in assay [1] (NS cells) is on record as 0.2 × 10^1. Besides, the “Activity on guinea pig myocardium (in words)” value in assay [4] (Dihydrochloride) is on record as “significantly different in their activity”.
